Reference: article PMC8371902, “Phase 1 study of M2698, a p70S6K/AKT dual inhibitor, in patients with advanced cancer” (Journal of Hematology & Oncology, 2021)
Where two headings read alike, the source gives them in different places.

System: patients with advanced metastatic cancer
From the text: In this phase 1 study, dose escalation was followed by expansion cohorts of once-daily, oral M2698 in continuous 21-day cycles. Primary objectives were to determine the maximum tolerated dose (MTD), dose-limiting toxicities (DLTs), and recommended phase 2 dose (RP2D). Secondary objectives were to assess safety and tolerability, pharmacokinetics (PK, including food effect) and antitumor activity. Pharmacodynamic biomarker assessments were exploratory. Treatment was discontinued if there was disease progression, toxicity or consent withdrawal.
In Part 1, M2698 monotherapy was investigated in a dose escalation with a food effect cohort. In Part 2, M2698 was investigated as monotherapy (expansion cohort) to further characterize safety, tolerability and pharmacokinetics, and assess antitumor activity in PAM + patients without confounding markers (exploratory).
Dose escalation analysis included all patients who experienced a DLT and those who received ≥ 80% of planned M2698 doses in cycle 1 without experiencing a DLT. Safety analysis included all patients who received ≥ 1 dose of M2698. PK analysis included all patients who received ≥ 1 dose of M2698 and had measurable plasma concentrations. Dose proportionality was tested using the power model (linear regression approach on the log -transformed scale).

## NC(=O)c1cccc2c(N[C@H](CN3CCC3)c3ccc(Cl)c(C(F)(F)F)c3)ncnc12 [M2698]
75 mg n=4
  M2698-related TEAE: Ataxia: 0
  M2698-related TEAE: Blood and lymphatic system disorders: 0
  M2698-related TEAE: Blood creatine phosphokinase increased: 1
  M2698-related TEAE: Blood creatinine increased: 0
  M2698-related TEAE: Cardiac disorders: 0
  M2698-related TEAE: Cognitive disorder: 0
  M2698-related TEAE: Constipation: 0
  M2698-related TEAE: Decreased appetite: 0
  M2698-related TEAE: Delusion: 0
  M2698-related TEAE: Depression: 0
  M2698-related TEAE: Diarrhoea: 0
  M2698-related TEAE: Diarrhoea haemorrhagic: 0
  M2698-related TEAE: Dizziness: 0
  M2698-related TEAE: Dry eye: 0
  M2698-related TEAE: Dry mouth: 0
  M2698-related TEAE: Dysgeusia: 1
  M2698-related TEAE: Dyspepsia: 0
  M2698-related TEAE: Dysphagia: 0
  M2698-related TEAE: Energy increased: 0
  M2698-related TEAE: Erythema: 0
  M2698-related TEAE: Euphoric mood: 0
  M2698-related TEAE: Eye disorders: 0
  M2698-related TEAE: Fatigue: 0
  M2698-related TEAE: Gamma-glutamyltransferase increased: 0
  M2698-related TEAE: Gastrointestinal disorders: 0
  M2698-related TEAE: Gastrooesophageal reflux disease: 0
  M2698-related TEAE: General disorders and administration site conditions: 0
  M2698-related TEAE: Headache: 0
  M2698-related TEAE: Hyperhidrosis: 0
  M2698-related TEAE: Hypokalaemia: 0
  M2698-related TEAE: Hypomagnesaemia: 0
  M2698-related TEAE: Insomnia: 0
  M2698-related TEAE: Investigations: 1
  M2698-related TEAE: Lipase increased: 0
  M2698-related TEAE: Lymphopenia: 0
  M2698-related TEAE: Metabolism and nutrition disorders: 0
  M2698-related TEAE: Mucosal inflammation: 0
  M2698-related TEAE: Nausea: 0
  M2698-related TEAE: Nervous system disorders: 1
  M2698-related TEAE: Nightmare: 1
  M2698-related TEAE: Onychomadesis: 0
  M2698-related TEAE: Paranoia: 0
  M2698-related TEAE: Photosensitivity reaction: 0
  M2698-related TEAE: Posterior reversible encephalopathy syndrome: 0
  M2698-related TEAE: Pruritus generalised: 0
  M2698-related TEAE: Psychiatric disorders: 1
  M2698-related TEAE: Rash: 0
  M2698-related TEAE: Rash maculo-papular: 1
  M2698-related TEAE: Skin and subcutaneous tissue disorders: 1
  M2698-related TEAE: Subjects with at least one event: 2
  M2698-related TEAE: Transaminases increased: 0
  M2698-related TEAE: Tremor: 0
  M2698-related TEAE: Vision blurred: 0
  M2698-related TEAE: Vomiting: 0
  M2698-related TEAE: White blood cell count decreased: 0
110 mg n=4
  M2698-related TEAE: Abnormal dreams: 0
  M2698-related TEAE: Affect lability: 0
  M2698-related TEAE: Alanine aminotransferase increased: 0
  M2698-related TEAE: Amylase increased: 0
  M2698-related TEAE: Anaemia: 0
  M2698-related TEAE: Angina pectoris: 0
  M2698-related TEAE: Anxiety: 0
  M2698-related TEAE: Aphasia: 0
  M2698-related TEAE: Ataxia: 0
  M2698-related TEAE: Blood and lymphatic system disorders: 0
  M2698-related TEAE: Blood creatine phosphokinase increased: 0
  M2698-related TEAE: Blood creatinine increased: 0
  M2698-related TEAE: Cardiac disorders: 0
  M2698-related TEAE: Cognitive disorder: 0
  M2698-related TEAE: Constipation: 1
  M2698-related TEAE: Decreased appetite: 0
  M2698-related TEAE: Delusion: 0
  M2698-related TEAE: Depression: 0
  M2698-related TEAE: Diarrhoea: 0
  M2698-related TEAE: Diarrhoea haemorrhagic: 0
  M2698-related TEAE: Dizziness: 0
  M2698-related TEAE: Dry eye: 0
  M2698-related TEAE: Dry mouth: 0
  M2698-related TEAE: Dysgeusia: 0
  M2698-related TEAE: Dyspepsia: 0
  M2698-related TEAE: Dysphagia: 0
  M2698-related TEAE: Energy increased: 0
  M2698-related TEAE: Erythema: 0
  M2698-related TEAE: Euphoric mood: 0
  M2698-related TEAE: Eye disorders: 0
  M2698-related TEAE: Fatigue: 0
  M2698-related TEAE: Gamma-glutamyltransferase increased: 0
  M2698-related TEAE: Gastrointestinal disorders: 1
  M2698-related TEAE: Gastrooesophageal reflux disease: 0
  M2698-related TEAE: General disorders and administration site conditions: 0
  M2698-related TEAE: Headache: 0
  M2698-related TEAE: Hyperhidrosis: 0
  M2698-related TEAE: Hypokalaemia: 0
  M2698-related TEAE: Hypomagnesaemia: 0
  M2698-related TEAE: Insomnia: 0
  M2698-related TEAE: Investigations: 0
  M2698-related TEAE: Lipase increased: 0
  M2698-related TEAE: Lymphopenia: 0
  M2698-related TEAE: Metabolism and nutrition disorders: 0
  M2698-related TEAE: Mucosal inflammation: 0
  M2698-related TEAE: Nausea: 1
  M2698-related TEAE: Nervous system disorders: 0
  M2698-related TEAE: Nightmare: 0
  M2698-related TEAE: Onychomadesis: 0
  M2698-related TEAE: Paranoia: 0
  M2698-related TEAE: Photosensitivity reaction: 0
  M2698-related TEAE: Posterior reversible encephalopathy syndrome: 0
  M2698-related TEAE: Pruritus generalised: 0
  M2698-related TEAE: Psychiatric disorders: 0
  M2698-related TEAE: Rash: 0
  M2698-related TEAE: Rash maculo-papular: 0
  M2698-related TEAE: Skin and subcutaneous tissue disorders: 0
  M2698-related TEAE: Subjects with at least one event: 1
  M2698-related TEAE: Transaminases increased: 0
  M2698-related TEAE: Tremor: 0
  M2698-related TEAE: Vision blurred: 0
  M2698-related TEAE: Vomiting: 0
  M2698-related TEAE: White blood cell count decreased: 0
160 mg n=6
  M2698-related TEAE: Abnormal dreams: 1
  M2698-related TEAE: Affect lability: 0
  M2698-related TEAE: Alanine aminotransferase increased: 0
  M2698-related TEAE: Amylase increased: 0
  M2698-related TEAE: Anaemia: 0
  M2698-related TEAE: Angina pectoris: 0
  M2698-related TEAE: Anxiety: 0
  M2698-related TEAE: Aphasia: 0
  M2698-related TEAE: Ataxia: 0
  M2698-related TEAE: Blood and lymphatic system disorders: 1
  M2698-related TEAE: Blood creatine phosphokinase increased: 0
  M2698-related TEAE: Blood creatinine increased: 0
  M2698-related TEAE: Cardiac disorders: 0
  M2698-related TEAE: Cognitive disorder: 0
  M2698-related TEAE: Constipation: 0
  M2698-related TEAE: Decreased appetite: 0
  M2698-related TEAE: Delusion: 0
  M2698-related TEAE: Depression: 0
  M2698-related TEAE: Diarrhoea: 0
  M2698-related TEAE: Diarrhoea haemorrhagic: 0
  M2698-related TEAE: Dizziness: 0
  M2698-related TEAE: Dry eye: 1
  M2698-related TEAE: Dry mouth: 1
  M2698-related TEAE: Dysgeusia: 1
  M2698-related TEAE: Dyspepsia: 0
  M2698-related TEAE: Dysphagia: 1
  M2698-related TEAE: Energy increased: 1
  M2698-related TEAE: Erythema: 1
  M2698-related TEAE: Euphoric mood: 1
  M2698-related TEAE: Eye disorders: 1
  M2698-related TEAE: Fatigue: 0
  M2698-related TEAE: Gamma-glutamyltransferase increased: 1
  M2698-related TEAE: Gastrointestinal disorders: 1
  M2698-related TEAE: Gastrooesophageal reflux disease: 0
  M2698-related TEAE: General disorders and administration site conditions: 1
  M2698-related TEAE: Headache: 0
  M2698-related TEAE: Hyperhidrosis: 0
  M2698-related TEAE: Hypokalaemia: 0
  M2698-related TEAE: Hypomagnesaemia: 0
  M2698-related TEAE: Insomnia: 1
  M2698-related TEAE: Investigations: 3
  M2698-related TEAE: Lipase increased: 0
  M2698-related TEAE: Lymphopenia: 1
  M2698-related TEAE: Metabolism and nutrition disorders: 0
  M2698-related TEAE: Mucosal inflammation: 0
  M2698-related TEAE: Nausea: 0
  M2698-related TEAE: Nervous system disorders: 1
  M2698-related TEAE: Nightmare: 0
  M2698-related TEAE: Onychomadesis: 0
  M2698-related TEAE: Paranoia: 0
  M2698-related TEAE: Photosensitivity reaction: 0
  M2698-related TEAE: Posterior reversible encephalopathy syndrome: 0
  M2698-related TEAE: Pruritus generalised: 0
  M2698-related TEAE: Psychiatric disorders: 2
  M2698-related TEAE: Rash: 1
  M2698-related TEAE: Rash maculo-papular: 0
  M2698-related TEAE: Skin and subcutaneous tissue disorders: 2
  M2698-related TEAE: Subjects with at least one event: 4
  M2698-related TEAE: Transaminases increased: 1
  M2698-related TEAE: Tremor: 0
  M2698-related TEAE: Vision blurred: 0
  M2698-related TEAE: Vomiting: 0
  M2698-related TEAE: White blood cell count decreased: 1
160 mg, n = 1
  DLT observed: grade 3 increase in gamma-glutamyltransferase
200 mg n=3
  M2698-related TEAE: Abnormal dreams: 0
  M2698-related TEAE: Affect lability: 0
  M2698-related TEAE: Alanine aminotransferase increased: 0
  M2698-related TEAE: Amylase increased: 0
  M2698-related TEAE: Anaemia: 1
  M2698-related TEAE: Angina pectoris: 0
  M2698-related TEAE: Anxiety: 0
  M2698-related TEAE: Aphasia: 0
  M2698-related TEAE: Ataxia: 0
  M2698-related TEAE: Blood and lymphatic system disorders: 1
  M2698-related TEAE: Blood creatine phosphokinase increased: 0
  M2698-related TEAE: Blood creatinine increased: 0
  M2698-related TEAE: Cardiac disorders: 0
  M2698-related TEAE: Cognitive disorder: 0
  M2698-related TEAE: Constipation: 0
  M2698-related TEAE: Decreased appetite: 1
